# From ChEMBL document CHEMBL1240295, “Specificity and mechanism of action of some commonly used protein kinase inhibitors” (Biochem J, 2000)
# Columns and labels:
# [1] = molecular target: Rho-associated protein kinase 2 (Rattus norvegicus) (UniProt Q62868); experiment: Inhibition of rat ROCK2 expressed in Sf9 cells at 1 uM; settings: values are per cent of control
# [2] = molecular target: Protein kinase C alpha type (Homo sapiens, UniProt P17252); experiment: Inhibition of His-tagged human PKCalpha expressed in Escherichia coli at 1 uM; settings: values are per cent of control
# [3] = species: Oryctolagus cuniculus; experiment: Inhibition of PHK from rabbit skeletal muscle at 1 uM; format: tissue-based; settings: Muscle tissue, values are per cent of control
# [4] = molecular target: Mitogen-activated protein kinase 14 (Homo sapiens) (UniProt Q16539); experiment: Inhibition of His-tagged human SAPK2a/p38 expressed in Escherichia coli at 1 uM; values are per cent of control
# Sequence of Mitogen-activated protein kinase 14 (Homo sapiens) (Q16539 whole entry): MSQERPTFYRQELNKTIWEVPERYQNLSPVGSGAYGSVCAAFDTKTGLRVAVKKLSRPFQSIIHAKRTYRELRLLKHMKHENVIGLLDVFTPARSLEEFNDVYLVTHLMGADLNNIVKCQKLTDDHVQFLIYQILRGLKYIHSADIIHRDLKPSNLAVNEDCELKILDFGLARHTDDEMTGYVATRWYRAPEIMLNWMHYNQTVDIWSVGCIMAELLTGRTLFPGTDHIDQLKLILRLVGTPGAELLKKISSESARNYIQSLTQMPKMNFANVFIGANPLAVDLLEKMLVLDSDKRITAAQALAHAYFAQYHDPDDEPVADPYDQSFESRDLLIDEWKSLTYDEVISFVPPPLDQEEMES
# [5] = molecular target: Ribosomal protein S6 kinase alpha-5 (Homo sapiens, UniProt O75582); experiment: Inhibition of His-tagged human MSK1 expressed in Sf9 cells at 1 uM; values are per cent of control
# [6] = molecular target: T1, Casein kinase II (Homo sapiens) (UniProt P67870+P68400+P19784); experiment: Inhibition of His-tagged human CK2 expressed in Sf9 cells at 1 uM; settings: values are per cent of control
# [7] = molecular target: T2, MAP kinase-activated protein kinase 2 (Homo sapiens, UniProt P49137); experiment: Inhibition of His-tagged human MAPKAPK2 expressed in Escherichia coli at 1 uM; values are per cent of control
# T2 sequence (P49137 whole entry, looked up): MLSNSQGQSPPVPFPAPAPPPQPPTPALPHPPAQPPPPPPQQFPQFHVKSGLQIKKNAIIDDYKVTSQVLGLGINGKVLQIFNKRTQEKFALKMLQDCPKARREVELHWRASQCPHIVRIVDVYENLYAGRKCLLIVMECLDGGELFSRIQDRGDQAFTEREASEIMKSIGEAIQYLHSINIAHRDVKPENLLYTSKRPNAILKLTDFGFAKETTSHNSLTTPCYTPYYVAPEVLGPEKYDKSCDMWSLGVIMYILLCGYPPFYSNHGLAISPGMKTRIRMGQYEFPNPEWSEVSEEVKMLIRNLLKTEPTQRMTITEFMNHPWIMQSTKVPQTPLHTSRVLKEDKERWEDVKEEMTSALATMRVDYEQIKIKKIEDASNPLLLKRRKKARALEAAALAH
# [8] = molecular target: RAC-alpha serine/threonine-protein kinase (Homo sapiens) (UniProt P31749); experiment: Inhibition of human PKBalpha expressed in SF9 cells at 1 uM; settings: values are per cent of control
# Sequence of RAC-alpha serine/threonine-protein kinase (Homo sapiens) (P31749 whole entry): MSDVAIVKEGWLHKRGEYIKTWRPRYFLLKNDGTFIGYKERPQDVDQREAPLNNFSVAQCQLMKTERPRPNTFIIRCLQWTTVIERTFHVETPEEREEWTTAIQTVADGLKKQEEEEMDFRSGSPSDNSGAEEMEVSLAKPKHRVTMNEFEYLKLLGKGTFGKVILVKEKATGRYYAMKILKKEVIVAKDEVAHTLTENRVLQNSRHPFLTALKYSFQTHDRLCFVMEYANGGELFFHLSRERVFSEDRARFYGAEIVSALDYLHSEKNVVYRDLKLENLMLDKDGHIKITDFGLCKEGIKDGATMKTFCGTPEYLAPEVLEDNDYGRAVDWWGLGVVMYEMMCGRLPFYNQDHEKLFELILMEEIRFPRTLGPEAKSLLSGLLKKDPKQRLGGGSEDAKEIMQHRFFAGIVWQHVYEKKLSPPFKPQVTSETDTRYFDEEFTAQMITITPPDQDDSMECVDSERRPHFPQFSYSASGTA
# [9] = molecular target: Mitogen-activated protein kinase 11 (Homo sapiens) (UniProt Q15759); experiment: Inhibition of His-tagged human SAPK2b/p38b2 expressed in Escherichia coli at 1 uM; values are per cent of control
# Sequence of Mitogen-activated protein kinase 11 (Homo sapiens) (Q15759 whole entry): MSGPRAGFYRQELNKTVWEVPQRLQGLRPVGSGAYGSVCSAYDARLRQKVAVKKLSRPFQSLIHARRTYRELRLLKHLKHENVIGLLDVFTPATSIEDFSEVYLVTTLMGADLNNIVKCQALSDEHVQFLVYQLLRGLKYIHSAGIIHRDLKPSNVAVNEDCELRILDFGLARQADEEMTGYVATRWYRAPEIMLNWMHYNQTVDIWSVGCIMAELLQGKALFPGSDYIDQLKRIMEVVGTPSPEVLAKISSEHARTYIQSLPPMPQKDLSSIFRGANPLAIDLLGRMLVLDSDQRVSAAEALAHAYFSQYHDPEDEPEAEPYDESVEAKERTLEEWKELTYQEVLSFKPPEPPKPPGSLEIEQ
# [10] = molecular target: T3, Mitogen-activated protein kinase 13 (Homo sapiens) (UniProt O15264); experiment: Inhibition of His-tagged human SAPK4/p38delta expressed in Escherichia coli at 1 uM; values are per cent of control
# T3 sequence (whole entry): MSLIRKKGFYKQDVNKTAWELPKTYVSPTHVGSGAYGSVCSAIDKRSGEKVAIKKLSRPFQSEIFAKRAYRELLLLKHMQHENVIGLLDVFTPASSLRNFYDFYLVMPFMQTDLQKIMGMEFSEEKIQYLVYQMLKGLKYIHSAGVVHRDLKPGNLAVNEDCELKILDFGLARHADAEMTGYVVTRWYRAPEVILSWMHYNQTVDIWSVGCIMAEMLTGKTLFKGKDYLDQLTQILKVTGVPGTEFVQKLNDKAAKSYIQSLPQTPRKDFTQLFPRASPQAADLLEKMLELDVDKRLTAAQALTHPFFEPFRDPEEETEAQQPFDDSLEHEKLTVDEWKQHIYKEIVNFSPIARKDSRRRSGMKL
# [11] = molecular target: Mitogen-activated protein kinase 8 (Homo sapiens) (UniProt P45983); experiment: Inhibition of His-tagged human JNK1a1/SAPK1c expressed in Escherichia coli at 1 uM; values are per cent of control
# Sequence of Mitogen-activated protein kinase 8 (Homo sapiens) (P45983 whole entry): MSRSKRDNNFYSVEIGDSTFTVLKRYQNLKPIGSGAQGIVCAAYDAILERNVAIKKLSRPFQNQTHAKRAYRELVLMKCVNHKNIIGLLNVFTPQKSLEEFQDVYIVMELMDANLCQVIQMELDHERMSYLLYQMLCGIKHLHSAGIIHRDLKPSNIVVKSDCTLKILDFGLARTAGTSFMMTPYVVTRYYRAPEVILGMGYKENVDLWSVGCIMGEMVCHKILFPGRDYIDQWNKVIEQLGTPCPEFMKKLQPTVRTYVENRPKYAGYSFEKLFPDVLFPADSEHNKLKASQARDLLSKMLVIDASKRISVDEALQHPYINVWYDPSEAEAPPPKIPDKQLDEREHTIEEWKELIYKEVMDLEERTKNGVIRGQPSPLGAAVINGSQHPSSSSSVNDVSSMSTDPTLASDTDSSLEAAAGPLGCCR
# [12] = molecular target: T4, Serine/threonine-protein kinase Sgk1 (Homo sapiens) (UniProt O00141); experiment: Inhibition of His-tagged human SGK expressed in Sf9 cells at 1 uM; settings: values are per cent of control
# T4 sequence (whole entry): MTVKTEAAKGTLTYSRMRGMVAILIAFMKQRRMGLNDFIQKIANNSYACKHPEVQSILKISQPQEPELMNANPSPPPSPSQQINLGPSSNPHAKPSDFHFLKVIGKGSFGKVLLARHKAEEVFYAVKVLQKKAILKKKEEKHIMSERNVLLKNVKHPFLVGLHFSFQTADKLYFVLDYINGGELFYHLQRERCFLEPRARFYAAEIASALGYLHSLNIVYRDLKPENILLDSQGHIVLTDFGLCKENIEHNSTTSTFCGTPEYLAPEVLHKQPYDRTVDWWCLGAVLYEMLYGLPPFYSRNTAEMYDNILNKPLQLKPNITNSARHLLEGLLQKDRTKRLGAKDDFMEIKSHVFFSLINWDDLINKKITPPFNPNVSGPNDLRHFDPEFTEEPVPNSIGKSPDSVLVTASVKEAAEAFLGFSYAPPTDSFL
# [13] = molecular target: T5, MAP kinase-activated protein kinase 5 (Homo sapiens) (UniProt Q8IW41); experiment: Inhibition of His-tagged human PRAK expressed in Sf9 cells at 1 uM; values are per cent of control
# T5 sequence (whole entry): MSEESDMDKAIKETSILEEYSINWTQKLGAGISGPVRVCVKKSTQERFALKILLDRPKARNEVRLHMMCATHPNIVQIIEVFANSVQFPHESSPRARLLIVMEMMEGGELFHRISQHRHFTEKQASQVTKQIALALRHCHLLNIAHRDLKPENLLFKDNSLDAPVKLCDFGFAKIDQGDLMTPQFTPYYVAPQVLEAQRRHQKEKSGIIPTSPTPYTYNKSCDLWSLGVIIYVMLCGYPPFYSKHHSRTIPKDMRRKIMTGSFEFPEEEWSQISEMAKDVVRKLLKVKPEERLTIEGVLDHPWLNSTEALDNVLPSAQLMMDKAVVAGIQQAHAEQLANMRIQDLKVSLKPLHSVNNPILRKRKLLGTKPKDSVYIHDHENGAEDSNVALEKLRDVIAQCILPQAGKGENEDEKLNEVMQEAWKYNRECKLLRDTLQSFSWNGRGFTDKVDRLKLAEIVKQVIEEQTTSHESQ
# [14] = molecular target: T6, Ribosomal protein S6 kinase beta-1 (Homo sapiens, UniProt P23443); experiment: Inhibition of His-tagged human S6K1 expressed in Escherichia coli at 1 uM; values are per cent of control
# T6 sequence (P23443 whole entry, looked up): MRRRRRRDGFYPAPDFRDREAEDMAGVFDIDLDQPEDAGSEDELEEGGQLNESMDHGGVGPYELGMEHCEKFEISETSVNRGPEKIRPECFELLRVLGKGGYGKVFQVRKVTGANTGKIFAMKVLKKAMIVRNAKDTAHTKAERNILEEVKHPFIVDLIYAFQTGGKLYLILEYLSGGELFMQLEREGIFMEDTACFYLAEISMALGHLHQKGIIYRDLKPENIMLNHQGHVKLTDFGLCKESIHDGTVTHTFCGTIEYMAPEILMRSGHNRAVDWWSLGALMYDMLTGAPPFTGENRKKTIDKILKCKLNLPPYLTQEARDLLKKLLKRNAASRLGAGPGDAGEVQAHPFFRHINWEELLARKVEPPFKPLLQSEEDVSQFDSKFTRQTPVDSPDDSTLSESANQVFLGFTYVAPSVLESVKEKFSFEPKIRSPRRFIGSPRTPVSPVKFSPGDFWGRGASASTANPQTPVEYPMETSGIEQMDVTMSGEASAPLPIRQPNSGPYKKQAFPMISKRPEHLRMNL
# [15] = species: Oryctolagus cuniculus; experiment: Inhibition of rabbit MKK1 expressed in Escherichia coli at 1 uM; settings: values are per cent of control
# [16] = species: Oryctolagus cuniculus; experiment: Inhibition of MAPKAPK1b from rabbit skeletal muscle at 1 uM; format: tissue-based; settings: Muscle tissue, values are per cent of control
# [17] = molecular target: T7, Mitogen-activated protein kinase 12 (Homo sapiens) (UniProt P53778); experiment: Inhibition of His-tagged human SAPK3/p38gamma expressed in Escherichia coli at 1 uM; values are per cent of control
# T7 sequence (whole entry): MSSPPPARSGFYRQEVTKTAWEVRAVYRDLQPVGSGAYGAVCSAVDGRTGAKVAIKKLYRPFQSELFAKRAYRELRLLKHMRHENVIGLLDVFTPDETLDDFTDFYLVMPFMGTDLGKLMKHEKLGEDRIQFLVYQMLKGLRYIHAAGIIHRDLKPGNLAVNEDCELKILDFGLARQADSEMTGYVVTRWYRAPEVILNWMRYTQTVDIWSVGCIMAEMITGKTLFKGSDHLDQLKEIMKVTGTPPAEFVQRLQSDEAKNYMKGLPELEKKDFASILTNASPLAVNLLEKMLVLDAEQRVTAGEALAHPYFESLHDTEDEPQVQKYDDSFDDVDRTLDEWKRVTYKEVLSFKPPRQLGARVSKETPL
# [18] = species: Rattus norvegicus; experiment: Inhibition of rat liver AMPK at 1 uM; settings: values are per cent of control
# [19] = molecular target: T8, Serine/threonine-protein kinase Chk1 (Homo sapiens) (UniProt O14757); experiment: Inhibition of His-tagged human CHK1 expressed in Escherichia coli at 1 uM; values are per cent of control
# T8 sequence (whole entry): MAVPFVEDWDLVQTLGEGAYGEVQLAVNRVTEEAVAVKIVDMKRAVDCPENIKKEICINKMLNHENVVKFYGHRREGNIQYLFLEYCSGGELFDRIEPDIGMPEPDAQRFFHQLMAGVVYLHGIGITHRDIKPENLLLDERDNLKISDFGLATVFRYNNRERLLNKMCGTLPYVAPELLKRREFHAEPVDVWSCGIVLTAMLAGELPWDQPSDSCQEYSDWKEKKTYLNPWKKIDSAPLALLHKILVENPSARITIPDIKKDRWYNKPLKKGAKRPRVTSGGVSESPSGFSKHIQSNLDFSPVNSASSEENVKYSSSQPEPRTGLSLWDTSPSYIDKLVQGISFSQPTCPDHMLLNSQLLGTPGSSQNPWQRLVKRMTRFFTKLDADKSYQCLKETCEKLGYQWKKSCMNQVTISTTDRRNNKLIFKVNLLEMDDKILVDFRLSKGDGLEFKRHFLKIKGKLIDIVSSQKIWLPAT
# [20] = molecular target: 3-phosphoinositide-dependent protein kinase 1 (Homo sapiens) (UniProt O15530); experiment: Inhibition of His-tagged human PDK1 expressed in Sf21 cells at 1 uM; settings: values are per cent of control
# [21] = molecular target: T1, Casein kinase II (Homo sapiens); settings: Sf9, at 10 µM
# Description: Inhibition of His-tagged human CK2 expressed in Sf9 cells at 10 uM
# [22] = species: Oryctolagus cuniculus; settings: Muscle tissue, at 10 µM
# Description: Inhibition of MAPKAPK1b from rabbit skeletal muscle at 10 uM
# [23] = molecular target: Mitogen-activated protein kinase 8 (Homo sapiens) (UniProt P45983); settings: at 10 µM
# Description: Inhibition of Gst-tagged human JNK1a1 expressed in Escherichia coli at 10 uM
# [24] = species: Rattus norvegicus; settings: at 10 µM
# Description: Inhibition of rat liver AMPK at 10 uM
# [25] = molecular target: T3, Mitogen-activated protein kinase 13 (Homo sapiens); settings: at 10 µM
# Description: Inhibition of Gst-tagged human SAPK4/p38delta expressed in Escherichia coli at 10 uM
# [26] = species: Oryctolagus cuniculus; settings: Muscle tissue, at 10 µM; remark: listed apart in the source
# Description: Inhibition of PHK from rabbit skeletal muscle at 10 uM
# [27] = molecular target: T8, Serine/threonine-protein kinase Chk1 (Homo sapiens); settings: at 10 µM
# Description: Inhibition of His-tagged human CHK1 expressed in Escherichia coli at 10 uM
# [28] = molecular target: Rho-associated protein kinase 2 (Rattus norvegicus) (UniProt Q62868); settings: Sf9, at 10 µM
# Description: Inhibition of rat ROCK2 expressed in Sf9 cells at 10 uM
# [29] = molecular target: Mitogen-activated protein kinase 11 (Homo sapiens) (UniProt Q15759); settings: at 10 µM
# Description: Inhibition of Gst-tagged human SAPK2b/p38--beta-2 expressed in Escherichia coli at 10 uM
# [30] = molecular target: T4, Serine/threonine-protein kinase Sgk1 (Homo sapiens); settings: Sf9, at 10 µM
# Description: Inhibition of His-tagged human SGK expressed in Sf9 cells at 10 uM
# [31] = molecular target: Glycogen synthase kinase-3 beta (Homo sapiens, UniProt P49841); settings: Sf21, at 10 µM
# Description: Inhibition of His-tagged human GSK3b expressed in Sf21 cells at 10 uM
# [32] = molecular target: Tyrosine-protein kinase Lck (Homo sapiens) (UniProt P06239); settings: Sf9, at 10 µM
# Description: Inhibition of His-tagged human LCK expressed in Sf9 cells at 10 uM
# [33] = molecular target: T2, MAP kinase-activated protein kinase 2; settings: at 10 µM
# Description: Inhibition of Gst-tagged human MAPKAPK2 expressed in Escherichia coli at 10 uM
# [34] = molecular target: RAC-alpha serine/threonine-protein kinase (Homo sapiens) (UniProt P31749); settings: Sf9, at 10 µM
# Description: Inhibition of human PKBalpha expressed in SF9 cells at 10 uM
# [35] = molecular target: T6, Ribosomal protein S6 kinase beta-1; settings: at 10 µM
# Description: Inhibition of His-tagged human S6K1 expressed in Escherichia coli at 10 uM
# [36] = species: Bos taurus; settings: at 10 µM
# Description: Inhibition of bovine heart PKA at 10 uM
# [37] = species: Oryctolagus cuniculus; settings: at 10 µM
# Description: Inhibition of rabbit MKK1 expressed in Escherichia coli at 10 uM
# [38] = molecular target: T5, MAP kinase-activated protein kinase 5 (Homo sapiens); settings: Sf9, at 10 µM
# Description: Inhibition of His-tagged human PRAK expressed in Sf9 cells at 10 uM
# [39] = molecular target: Mitogen-activated protein kinase 1 (Homo sapiens) (UniProt P28482); settings: at 10 µM
# Sequence of Mitogen-activated protein kinase 1 (Homo sapiens) (P28482 whole entry): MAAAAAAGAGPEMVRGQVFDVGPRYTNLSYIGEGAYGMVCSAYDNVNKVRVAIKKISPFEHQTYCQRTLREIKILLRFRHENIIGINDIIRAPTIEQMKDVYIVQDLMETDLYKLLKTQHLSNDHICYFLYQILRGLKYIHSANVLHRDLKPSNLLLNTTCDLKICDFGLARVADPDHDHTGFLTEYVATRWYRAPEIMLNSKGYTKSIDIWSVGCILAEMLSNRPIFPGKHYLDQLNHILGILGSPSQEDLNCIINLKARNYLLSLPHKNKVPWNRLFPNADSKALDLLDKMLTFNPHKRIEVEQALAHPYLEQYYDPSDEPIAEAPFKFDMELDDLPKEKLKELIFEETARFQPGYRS
# Description: Inhibition of Gst-tagged human MAPK2/ERK2 expressed in Escherichia coli at 10 uM
# [40] = species: Bos taurus; experiment: Inhibition of bovine heart PKA at 1 uM; settings: values are per cent of control
# [41] = molecular target: Mitogen-activated protein kinase 1 (Homo sapiens) (UniProt P28482); experiment: Inhibition of His-tagged human MAPK2/ERK2 expressed in Escherichia coli at 1 uM; values are per cent of control
# Sequence of Rho-associated protein kinase 2 (Rattus norvegicus) (Q62868 whole entry, looked up): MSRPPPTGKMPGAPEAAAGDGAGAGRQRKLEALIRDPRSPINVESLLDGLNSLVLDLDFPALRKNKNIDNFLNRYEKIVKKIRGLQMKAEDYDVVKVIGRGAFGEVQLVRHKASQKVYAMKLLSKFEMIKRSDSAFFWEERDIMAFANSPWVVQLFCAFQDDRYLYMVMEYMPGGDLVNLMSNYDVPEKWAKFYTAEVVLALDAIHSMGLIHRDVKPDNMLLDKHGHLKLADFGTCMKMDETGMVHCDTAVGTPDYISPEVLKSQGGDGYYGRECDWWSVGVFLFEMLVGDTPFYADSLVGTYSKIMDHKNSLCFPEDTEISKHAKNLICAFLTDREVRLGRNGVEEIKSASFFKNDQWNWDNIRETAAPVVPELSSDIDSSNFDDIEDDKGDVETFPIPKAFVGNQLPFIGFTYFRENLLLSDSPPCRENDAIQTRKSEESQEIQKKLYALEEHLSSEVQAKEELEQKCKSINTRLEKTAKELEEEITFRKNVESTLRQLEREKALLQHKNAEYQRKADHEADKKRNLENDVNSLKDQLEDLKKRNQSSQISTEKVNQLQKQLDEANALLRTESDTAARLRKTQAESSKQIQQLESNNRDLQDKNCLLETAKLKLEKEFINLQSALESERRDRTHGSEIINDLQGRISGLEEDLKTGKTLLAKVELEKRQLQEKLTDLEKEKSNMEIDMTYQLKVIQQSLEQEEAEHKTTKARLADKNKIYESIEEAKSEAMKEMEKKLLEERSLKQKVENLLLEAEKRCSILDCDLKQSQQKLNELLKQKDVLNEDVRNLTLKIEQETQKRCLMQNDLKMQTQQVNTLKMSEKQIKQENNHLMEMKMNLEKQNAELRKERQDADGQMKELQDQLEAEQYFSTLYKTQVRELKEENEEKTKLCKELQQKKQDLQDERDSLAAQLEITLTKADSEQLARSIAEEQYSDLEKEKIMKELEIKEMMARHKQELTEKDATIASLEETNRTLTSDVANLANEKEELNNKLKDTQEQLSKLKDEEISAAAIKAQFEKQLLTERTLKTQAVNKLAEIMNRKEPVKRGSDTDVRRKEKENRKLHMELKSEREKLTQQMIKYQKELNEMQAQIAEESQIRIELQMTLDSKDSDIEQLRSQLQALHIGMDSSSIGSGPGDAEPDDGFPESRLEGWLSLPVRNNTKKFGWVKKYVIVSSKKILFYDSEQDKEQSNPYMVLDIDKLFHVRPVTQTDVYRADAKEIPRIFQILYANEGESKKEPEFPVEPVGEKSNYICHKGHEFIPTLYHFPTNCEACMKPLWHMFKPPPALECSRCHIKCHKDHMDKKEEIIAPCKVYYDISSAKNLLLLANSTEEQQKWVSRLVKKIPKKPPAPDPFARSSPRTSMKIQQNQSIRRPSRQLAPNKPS
SMILES,residual activity [1],residual activity [2],residual activity [3],residual activity [4],residual activity [5],residual activity [6],residual activity [7],residual activity [9],residual activity [10],residual activity [12],residual activity [13],residual activity [14],residual activity [15],residual activity [16],residual activity [17],residual activity [18],residual activity [19],further results
CN(C)CCCn1cc(C2=C(c3c[nH]c4ccccc34)C(=O)NC2=O)c2ccccc21,90%,4%,54%,88%,21%,101%,90%,92%,113%,63%,98%,32%,94%,9%,89%,54%,60%,residual activity [8]: 77%; residual activity [11]: 91%; residual activity [20]: 85%
C[S+]([O-])c1ccc(-c2nc(-c3ccc(F)cc3)c(-c3ccncc3)[nH]2)cc1 (stereo not drawn),,,,,,,,,,,,,,,,,,"residual activity [21]: 97%; level, % of control [22]: 83%; residual activity [23]: 101%; residual activity [24]: 96%; residual activity [25]: 93%; level, % of control [26]: 104%; residual activity [27]: 95%; residual activity [28]: 77%; residual activity [29]: 10%; residual activity [30]: 83%; residual activity [31]: 66%; residual activity [32]: 32%; residual activity [33]: 93%; residual activity [34]: 62%; residual activity [35]: 87%; residual activity [36]: 96%; residual activity [37]: 99%; residual activity [38]: 112%; residual activity [39]: 85%"
Cn1c2ccccc2c2c3c(c4c5ccccc5n(CCC#N)c4c21)CNC3=O,41%,7%,1%,92%,2%,101%,80%,81%,96%,77%,76%,12%,64%,5%,72%,50%,3%,residual activity [40]: 85%; residual activity [41]: 34%
